What was measured:
Format in all cases: in vivo, rat
rats = assay: Effect of haloperidol and clozapine on PCP induced hypofunction: LCGU; settings: i.p. PCP 2.58 mgkg^−1; minipump vehicle, clozapine 20 or haloperidol 1 mgkg^−1/day; day 29
Excerpt: The effect of antipsychotics on the positive symptoms is less well studied regarding imaging studies.

freely moving rats = assay: Induction and maintenance of PCP-induced hypofunction: LCGU by 14C-2-deoxyglucose autoradiography
Description: An initial treatment period of intraperitoneal (i.p.) injections once daily for 5 days was carried out, followed by a maintenance schedule of i.p. injections three times weekly (every 60 hours) for a further 21 days.
Intermittent exposure to PCP during the maintenance phase of the model was favoured due to the long half life of the drug within brain tissue (Misra, A. L. et al). […] As a comparison to the present model, the inventors also investigated the effect of previously published subchronic treatment with PCP (Jentsch, J. D. et al) using quantitative C-2-deoxyglucose autoradiography (Sokoloff, L.)
Local cerebral glucose utilisation (LCGU) was measured using an adaptation of the original method for freely moving rats (Crane, A. M. et al) 72 hours after the initial induction phase (day 8) and 72 hours after the induction phase followed by the maintenance phase (day 29). LCGU was measured 72 hours after the last exposure to PCP so the effects of PCP on LCGU would be independent of the acute effects of the drug. […] Thus, using a dose of 2.59 mgkg^−1 the inventors had established a novel treatment paradigm which mimics the findings of human imaging studies in schizophrenic patients.

CIRL2 variant AB mRNA = assay: Semi-quantitative RT-PCR, prefrontal cortex, chronic PCP and antipsychotic treatment; settings: chronic PCP treatment
Description: FIG. 15 illustrates the level of CIRL2 variant AB mRNA present in the prefrontal cortex of rat brain following chronic PCP and antipsychotic treatment (n=12 for all groups apart from veh-veh where n=11). […] and […] (SEQ ID NOS: 27-28) were the primer sequences used to amplify this product.
RT-PCR for specific isoforms of CIRL was then conducted in the prefrontal cortex.
1 ml of lysis buffer (Qiagen), including 1% β-mercaptoethanol, was added to approximately 50-100 mg of brain tissue. Tissue samples were homogenised using a ribolyser (Hybaid) with 3 bursts at 6.5 g lasting 20 seconds each. Samples were then spun at room temperature in a microfuge for 3 minutes. The supernatant was removed and re-spun for a further 3 minutes. The supernatant was decanted to a fresh tube to which an equal volume of 70% ethanol was added. The remaining RNA isolation procedure was carried out according to the manufacturer's protocol (Qiagen).
Synthesis of cDNA was carried out according to manufacturers protocols (Life Technologies). Briefly 3-5μg of total RNA was reverse transcribed using oligo dT priming. After cDNA synthesis, samples were aliquoted and stored at −70° C. […]
Alterations in expression levels were determined by semi-quantitative PCR. […] Samples were removed over 4 consecutive cycles, however, the first cycle to be removed sometimes varied depending on when logarithmic amplification was detected. […]

c1ccc(C2(N3CCCCC3)CCCCC2)cc1 [PCP, phencyclidine]
LCGU, Au layer I (rats): 138 ± 3 μmol/100 g/min | LCGU, Au layers II, III&IV (rats): 174 ± 4 μmol/100 g/min | LCGU, Au layers V & VI (rats): 120 ± 2 μmol/100 g/min | LCGU, AuD layer I (rats): 126 ± 5 μmol/100 g/min | LCGU, AuD layers II, III&IV (rats): 141 ± 6 μmol/100 g/min | LCGU, AuD layers V & VI (rats): 105 ± 2 μmol/100 g/min | LCGU, CA1 molecular layer (rats): 93 ± 2 μmol/100 g/min | LCGU, CA1 pyramidal cell layer (rats): 63 ± 2 μmol/100 g/min | LCGU, CA1 stratum oriens (rats): 59 ± 2 μmol/100 g/min | LCGU, CA1 stratum radiatum (rats): 67 ± 2 μmol/100 g/min | LCGU, CA3 molecular layer (rats): 90 ± 2 μmol/100 g/min | LCGU, CA3 pyramidal cell layer (rats): 69 ± 2 μmol/100 g/min | LCGU, CA3 stratum oriens (rats): 60 ± 3 μmol/100 g/min | LCGU, CA3 stratum radiatum (rats): 70 ± 3 μmol/100 g/min | LCGU, DLL (rats): 89 ± 4 μmol/100 g/min | LCGU, MD (rats): 133 ± 6 μmol/100 g/min | LCGU, PrL layer I (rats): 109 ± 4 μmol/100 g/min | LCGU, PrL layers II & III (rats): 127 ± 5 μmol/100 g/min | LCGU, PrL layers V & VI (rats): 97 ± 3 μmol/100 g/min | LCGU, Rt (rats): 79 ± 2 μmol/100 g/min | LCGU, VLL (rats): 98 ± 6 μmol/100 g/min | LCGU, cochlear nucleus (rats): 92 ± 4 μmol/100 g/min | LCGU, mO layer I (rats): 104 ± 5 μmol/100 g/min | LCGU, mO layers II & III (rats): 121 ± 6 μmol/100 g/min | LCGU, mO layers V & VI (rats): 113 ± 6 μmol/100 g/min | maintenance of metabolic hypofunction by second phase of the model (freely moving rats; 0.86 mgkg^−1 PCP): not, however, maintained | LCGU, Au layer I (freely moving rats; 0.86 mgkg^−1 PCP i.p., day 8): 127 ± 2 μmol/100 g/min | LCGU, Au layers II, III&IV (freely moving rats; 0.86 mgkg^−1 PCP i.p., day 8): 152 ± 3 μmol/100 g/min | LCGU, Au layers V & VI (freely moving rats; 0.86 mgkg^−1 PCP i.p., day 8): 114 ± 4 μmol/100 g/min | LCGU, AuD layer I (freely moving rats; 0.86 mgkg^−1 PCP i.p., day 8): 126 ± 3 μmol/100 g/min | LCGU, AuD layers II, III&IV (freely moving rats; 0.86 mgkg^−1 PCP i.p., day 8): 151 ± 4 μmol/100 g/min | LCGU, AuD layers V & VI (freely moving rats; 0.86 mgkg^−1 PCP i.p., day 8): 106 ± 2 μmol/100 g/min | LCGU, DLL (freely moving rats; 0.86 mgkg^−1 PCP i.p., day 8): 91 ± 4 μmol/100 g/min | LCGU, MD (freely moving rats; 0.86 mgkg^−1 PCP i.p., day 8): 112 ± 4 μmol/100 g/min | LCGU, PrL layer I (freely moving rats; 0.86 mgkg^−1 PCP i.p., day 8): 132 ± 6 μmol/100 g/min | LCGU, PrL layers II & III (freely moving rats; 0.86 mgkg^−1 PCP i.p., day 8): 150 ± 7 μmol/100 g/min | LCGU, PrL layers V & VI (freely moving rats; 0.86 mgkg^−1 PCP i.p., day 8): 115 ± 3 μmol/100 g/min | LCGU, Rt (freely moving rats; 0.86 mgkg^−1 PCP i.p., day 8): 106 ± 2 μmol/100 g/min | LCGU, VLL (freely moving rats; 0.86 mgkg^−1 PCP i.p., day 8): 98 ± 5 μmol/100 g/min | LCGU, cochlear nucleus (freely moving rats; 0.86 mgkg^−1 PCP i.p., day 8): 107 ± 3 μmol/100 g/min | LCGU, mO layer (freely moving rats; 0.86 mgkg^−1 PCP i.p., day 8): 110 ± 2 μmol/100 g/min | LCGU, mO layers II & III (freely moving rats; 0.86 mgkg^−1 PCP i.p., day 8): 127 ± 2 μmol/100 g/min | LCGU, mO layers V & VI (freely moving rats; 0.86 mgkg^−1 PCP i.p., day 8): 129 ± 5 μmol/100 g/min | LCGU, Au layer I (freely moving rats; 0.86 mgkg^−1 PCP i.p., day 29): 167 ± 14 μmol/100 g/min | LCGU, Au layers II, III&IV (freely moving rats; 0.86 mgkg^−1 PCP i.p., day 29): 189 ± 12 μmol/100 g/min | LCGU, Au layers V & VI (freely moving rats; 0.86 mgkg^−1 PCP i.p., day 29): 137 ± 10 μmol/100 g/min | LCGU, AuD layer I (freely moving rats; 0.86 mgkg^−1 PCP i.p., day 29): 159 ± 11 μmol/100 g/min | LCGU, AuD layers II, III&IV (freely moving rats; 0.86 mgkg^−1 PCP i.p., day 29): 178 ± 10 μmol/100 g/min | LCGU, AuD layers V & VI (freely moving rats; 0.86 mgkg^−1 PCP i.p., day 29): 128 ± 9 μmol/100 g/min | LCGU, DLL (freely moving rats; 0.86 mgkg^−1 PCP i.p., day 29): 116 ± 8 μmol/100 g/min | LCGU, MD (freely moving rats; 0.86 mgkg^−1 PCP i.p., day 29): 122 ± 5 μmol/100 g/min | LCGU, PrL layer I (freely moving rats; 0.86 mgkg^−1 PCP i.p., day 29): 133 ± 2 μmol/100 g/min | LCGU, PrL layers II & III (freely moving rats; 0.86 mgkg^−1 PCP i.p., day 29): 149 ± 2 μmol/100 g/min | LCGU, PrL layers V & VI (freely moving rats; 0.86 mgkg^−1 PCP i.p., day 29): 112 ± 3 μmol/100 g/min | LCGU, Rt (freely moving rats; 0.86 mgkg^−1 PCP i.p., day 29): 108 ± 4 μmol/100 g/min | LCGU, VLL (freely moving rats; 0.86 mgkg^−1 PCP i.p., day 29): 118 ± 13 μmol/100 g/min | LCGU, cochlear nucleus (freely moving rats; 0.86 mgkg^−1 PCP i.p., day 29): 117 ± 2 μmol/100 g/min | LCGU, mO layer (freely moving rats; 0.86 mgkg^−1 PCP i.p., day 29): 122 ± 3 μmol/100 g/min | LCGU, mO layers II & III (freely moving rats; 0.86 mgkg^−1 PCP i.p., day 29): 135 ± 4 μmol/100 g/min | LCGU, mO layers V & VI (freely moving rats; 0.86 mgkg^−1 PCP i.p., day 29): 136 ± 3 μmol/100 g/min | LCGU, Au layer I (freely moving rats; 2.58 mgkg^−1 PCP i.p., day 8): 135 ± 3 μmol/100 g/min | LCGU, Au layers II, III&IV (freely moving rats; 2.58 mgkg^−1 PCP i.p., day 8): 166 ± 5 μmol/100 g/min | LCGU, Au layers V & VI (freely moving rats; 2.58 mgkg^−1 PCP i.p., day 8): 120 ± 4 μmol/100 g/min | LCGU, AuD layer I (freely moving rats; 2.58 mgkg^−1 PCP i.p., day 8): 135 ± 3 μmol/100 g/min | LCGU, AuD layers II, III&IV (freely moving rats; 2.58 mgkg^−1 PCP i.p., day 8): 151 ± 4 μmol/100 g/min | LCGU, AuD layers V & VI (freely moving rats; 2.58 mgkg^−1 PCP i.p., day 8): 104 ± 2 μmol/100 g/min | LCGU, DLL (freely moving rats; 2.58 mgkg^−1 PCP i.p., day 8): 83 ± 4 μmol/100 g/min | LCGU, MD (freely moving rats; 2.58 mgkg^−1 PCP i.p., day 8): 115 ± 4 μmol/100 g/min | LCGU, PrL layer I (freely moving rats; 2.58 mgkg^−1 PCP i.p., day 8): 104 ± 2 μmol/100 g/min | LCGU, PrL layers II & III (freely moving rats; 2.58 mgkg^−1 PCP i.p., day 8): 133 ± 2 μmol/100 g/min | LCGU, PrL layers V & VI (freely moving rats; 2.58 mgkg^−1 PCP i.p., day 8): 96 ± 3 μmol/100 g/min | LCGU, Rt (freely moving rats; 2.58 mgkg^−1 PCP i.p., day 8): 86 ± 2 μmol/100 g/min | LCGU, VLL (freely moving rats; 2.58 mgkg^−1 PCP i.p., day 8): 93 ± 3 μmol/100 g/min | LCGU, cochlear nucleus (freely moving rats; 2.58 mgkg^−1 PCP i.p., day 8): 98 ± 3 μmol/100 g/min | LCGU, mO layer (freely moving rats; 2.58 mgkg^−1 PCP i.p., day 8): 105 ± 4 μmol/100 g/min | LCGU, mO layers II & III (freely moving rats; 2.58 mgkg^−1 PCP i.p., day 8): 127 ± 5 μmol/100 g/min | LCGU, mO layers V & VI (freely moving rats; 2.58 mgkg^−1 PCP i.p., day 8): 115 ± 1 μmol/100 g/min | LCGU, Au layer I (freely moving rats; 2.58 mgkg^−1 PCP i.p., day 29): 137 ± 5 μmol/100 g/min | LCGU, Au layers II, III&IV (freely moving rats; 2.58 mgkg^−1 PCP i.p., day 29): 162 ± 6 μmol/100 g/min | LCGU, Au layers V & VI (freely moving rats; 2.58 mgkg^−1 PCP i.p., day 29): 115 ± 3 μmol/100 g/min | LCGU, AuD layer I (freely moving rats; 2.58 mgkg^−1 PCP i.p., day 29): 130 ± 7 μmol/100 g/min | LCGU, AuD layers II, III&IV (freely moving rats; 2.58 mgkg^−1 PCP i.p., day 29): 146 ± 7 μmol/100 g/min | LCGU, AuD layers V & VI (freely moving rats; 2.58 mgkg^−1 PCP i.p., day 29): 101 ± 4 μmol/100 g/min | LCGU, DLL (freely moving rats; 2.58 mgkg^−1 PCP i.p., day 29): 96 ± 5 μmol/100 g/min | LCGU, MD (freely moving rats; 2.58 mgkg^−1 PCP i.p., day 29): 116 ± 3 μmol/100 g/min | LCGU, PrL layer I (freely moving rats; 2.58 mgkg^−1 PCP i.p., day 29): 107 ± 4 μmol/100 g/min | LCGU, PrL layers II & III (freely moving rats; 2.58 mgkg^−1 PCP i.p., day 29): 116 ± 1 μmol/100 g/min | LCGU, PrL layers V & VI (freely moving rats; 2.58 mgkg^−1 PCP i.p., day 29): 89 ± 2 μmol/100 g/min | LCGU, Rt (freely moving rats; 2.58 mgkg^−1 PCP i.p., day 29): 89 ± 2 μmol/100 g/min | LCGU, VLL (freely moving rats; 2.58 mgkg^−1 PCP i.p., day 29): 99 ± 4 μmol/100 g/min | LCGU, cochlear nucleus (freely moving rats; 2.58 mgkg^−1 PCP i.p., day 29): 94 ± 4 μmol/100 g/min | LCGU, mO layer (freely moving rats; 2.58 mgkg^−1 PCP i.p., day 29): 108 ± 5 μmol/100 g/min | LCGU, mO layers II & III (freely moving rats; 2.58 mgkg^−1 PCP i.p., day 29): 124 ± 5 μmol/100 g/min | LCGU, mO layers V & VI (freely moving rats; 2.58 mgkg^−1 PCP i.p., day 29): 111 ± 3 μmol/100 g/min | LCGU in medial orbital cortex, prelimbic cortex, auditory pathway, reticular nucleus of the thalamus (freely moving rats; 2.58 mgkg^−1 PCP, after both phases of the model): induced a metabolic hypofunction | effect on LCGU within any brain area (freely moving rats; subchronic PCP 5 mgkg^−1 twice daily for seven days (data not shown)): did not produce any significant effect | expression of CIRL2 (AB) (RT-PCR) (CIRL2 variant AB mRNA): reduced

Source: patent publication US20070074295A1 (priority 2000, published 2007)
